The target in one data set is CYP3A4 (Homo sapiens, UniProt P08684). Put plainly: CYP inhibition assay. As to conditions: at 20 μM.
A further data set has as its target human PDE9A (Homo sapiens, UniProt O76083). Put plainly: PDE9A scintillation proximity assay with 3H-cGMP. The data set is classed as biochemical. On the technique in general: Scintillation proximity formats need no separation of bound from free tracer.
In a further data set the target is hERG (Homo sapiens, UniProt Q12809). Put plainly: Cardiac ion channel inhibition.
The next data set deals with PDE3B. Put plainly: PDE selectivity profiling. In kind it is biochemical, human.
For the next data set, the system named is CYP3A4 mRNA. Put plainly: CYP induction potential in human hepatocytes. In kind it is in vitro ADME.
The next data set can be described thus: Pharmacokinetics in dogs. In kind it is in vivo. As to conditions: dog, blood, iv, 0.3 mg/kg.
The target in the next data set is T1, CYP2C8 (Homo sapiens, UniProt P10632).
T1 sequence (P10632 1-490): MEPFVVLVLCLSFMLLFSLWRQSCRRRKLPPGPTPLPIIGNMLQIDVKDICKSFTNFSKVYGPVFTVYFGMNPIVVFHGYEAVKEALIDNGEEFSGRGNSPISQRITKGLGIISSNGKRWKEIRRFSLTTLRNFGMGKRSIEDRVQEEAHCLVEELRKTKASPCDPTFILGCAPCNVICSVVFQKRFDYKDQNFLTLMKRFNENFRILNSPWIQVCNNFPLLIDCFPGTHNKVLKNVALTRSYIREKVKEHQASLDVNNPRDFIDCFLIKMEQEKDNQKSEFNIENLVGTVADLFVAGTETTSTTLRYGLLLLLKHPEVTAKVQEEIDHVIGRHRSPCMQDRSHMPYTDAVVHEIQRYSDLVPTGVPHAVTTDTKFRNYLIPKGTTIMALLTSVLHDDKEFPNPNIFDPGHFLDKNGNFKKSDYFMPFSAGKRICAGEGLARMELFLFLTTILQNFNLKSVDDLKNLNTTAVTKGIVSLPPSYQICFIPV
Put plainly: CYP inhibition assay. The note with it: at 20 μM.

The target of a further data set is CYP2D6 (Homo sapiens, UniProt P10635). Put plainly: CYP inhibition assay. As to conditions: at 20 μM.
Another data set deals with Nav1.5 (Homo sapiens, UniProt Q14524). Put plainly: Cardiac ion channel inhibition.
A short description of data set [1]: Metabolite identification assay, hepatocyte incubation. In kind it is in vitro ADME, rat.
The next data set concerns PDE10A. Briefly: PDE selectivity profiling. The data set is classed as biochemical, human.
Data set [2] can be described thus: Radiotelemetric measurement of blood pressure in rats. As to conditions: telemetric rats, within 24 h.
The next data set deals with T2, rat PDE9A (Rattus norvegicus, UniProt Q8QZV1).
T2 sequence (Q8QZV1 1-534): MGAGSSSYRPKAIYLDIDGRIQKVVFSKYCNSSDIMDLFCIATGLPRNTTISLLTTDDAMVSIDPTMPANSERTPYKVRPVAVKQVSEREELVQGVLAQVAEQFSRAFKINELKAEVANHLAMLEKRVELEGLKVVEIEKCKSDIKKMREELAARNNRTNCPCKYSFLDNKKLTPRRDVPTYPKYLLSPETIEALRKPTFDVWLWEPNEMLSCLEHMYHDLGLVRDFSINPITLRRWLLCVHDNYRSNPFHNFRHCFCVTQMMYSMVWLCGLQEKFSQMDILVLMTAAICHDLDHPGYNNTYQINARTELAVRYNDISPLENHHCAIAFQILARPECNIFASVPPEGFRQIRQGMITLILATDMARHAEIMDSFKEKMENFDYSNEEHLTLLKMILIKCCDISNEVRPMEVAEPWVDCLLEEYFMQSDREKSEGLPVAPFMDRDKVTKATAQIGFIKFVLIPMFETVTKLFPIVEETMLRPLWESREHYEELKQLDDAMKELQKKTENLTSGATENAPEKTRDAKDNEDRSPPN
Briefly: PDE9A scintillation proximity assay, rat enzyme. In kind it is biochemical.

For data set [3], the system named is CYP1A2. In kind it is in vitro ADME. As to conditions: human hepatocytes.
The subject of another data set is PDE2A. Briefly: PDE selectivity profiling. In kind it is biochemical, human.
The target of a further data set is T3, mouse PDE9A (Mus musculus, UniProt O70628).
T3 sequence (O70628 1-534): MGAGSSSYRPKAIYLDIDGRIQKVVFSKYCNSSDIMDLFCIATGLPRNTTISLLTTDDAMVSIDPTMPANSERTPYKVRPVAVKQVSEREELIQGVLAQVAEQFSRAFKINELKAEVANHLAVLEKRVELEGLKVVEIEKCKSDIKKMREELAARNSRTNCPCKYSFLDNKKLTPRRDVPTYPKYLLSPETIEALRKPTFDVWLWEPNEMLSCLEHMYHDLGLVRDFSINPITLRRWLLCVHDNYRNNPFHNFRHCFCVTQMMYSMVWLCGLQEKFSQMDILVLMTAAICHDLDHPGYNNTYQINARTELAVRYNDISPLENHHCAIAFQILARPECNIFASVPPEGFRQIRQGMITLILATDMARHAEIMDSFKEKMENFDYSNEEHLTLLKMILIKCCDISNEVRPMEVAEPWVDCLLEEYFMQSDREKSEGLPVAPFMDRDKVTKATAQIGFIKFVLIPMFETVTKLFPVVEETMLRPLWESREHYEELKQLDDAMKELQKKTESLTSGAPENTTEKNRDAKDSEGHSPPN
Put plainly: PDE9A scintillation proximity assay, mouse enzyme. In kind it is biochemical.

The subject of a further data set is 75 off-targets (Panlabs). Briefly: Panlabs off-target profile.
For the next data set, the system named is urinary cGMP. Briefly: Urinary cGMP assay in rats. As to conditions: 40 mg/kg. In kind it is in vivo, rat.
Data set [4] is described as follows: Metabolite identification assay, hepatocyte incubation. In kind it is in vitro ADME, human.
A further data set deals with PDE7B. Briefly: PDE selectivity profiling. The data set is classed as biochemical, human.
Data set [5] deals with T4, CYP1A2 (Homo sapiens, UniProt P05177).
T4 sequence (P05177 1-516): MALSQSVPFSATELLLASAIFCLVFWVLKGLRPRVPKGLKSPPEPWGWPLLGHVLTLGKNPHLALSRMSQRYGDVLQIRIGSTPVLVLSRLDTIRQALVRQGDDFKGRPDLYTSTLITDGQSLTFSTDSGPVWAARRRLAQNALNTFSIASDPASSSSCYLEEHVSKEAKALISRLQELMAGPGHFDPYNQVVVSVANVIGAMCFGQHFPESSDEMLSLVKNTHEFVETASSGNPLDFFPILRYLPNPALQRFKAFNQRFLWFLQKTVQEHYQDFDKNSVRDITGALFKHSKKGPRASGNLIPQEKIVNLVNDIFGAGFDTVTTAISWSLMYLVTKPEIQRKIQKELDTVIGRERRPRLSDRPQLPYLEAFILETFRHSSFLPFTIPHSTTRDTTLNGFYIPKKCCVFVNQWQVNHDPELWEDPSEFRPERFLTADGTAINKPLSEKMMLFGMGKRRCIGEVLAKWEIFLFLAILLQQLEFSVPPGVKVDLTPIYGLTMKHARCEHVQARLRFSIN
The note with it: at 20 μM.

Data set [6] in a line: Transverse aortic constriction. The note with it: mouse TAC. The data set is classed as in vivo.
The mark [7] stands for this setting: twice daily oral 10 or 50 mg/kg.
Setting [8] is: 10 mg/kg twice daily for 5 weeks.

Molecules are shown by their SMILES. A value given as a limit tells only on which side of the number the result lay.

Sequence of CYP3A4 (P08684 whole entry): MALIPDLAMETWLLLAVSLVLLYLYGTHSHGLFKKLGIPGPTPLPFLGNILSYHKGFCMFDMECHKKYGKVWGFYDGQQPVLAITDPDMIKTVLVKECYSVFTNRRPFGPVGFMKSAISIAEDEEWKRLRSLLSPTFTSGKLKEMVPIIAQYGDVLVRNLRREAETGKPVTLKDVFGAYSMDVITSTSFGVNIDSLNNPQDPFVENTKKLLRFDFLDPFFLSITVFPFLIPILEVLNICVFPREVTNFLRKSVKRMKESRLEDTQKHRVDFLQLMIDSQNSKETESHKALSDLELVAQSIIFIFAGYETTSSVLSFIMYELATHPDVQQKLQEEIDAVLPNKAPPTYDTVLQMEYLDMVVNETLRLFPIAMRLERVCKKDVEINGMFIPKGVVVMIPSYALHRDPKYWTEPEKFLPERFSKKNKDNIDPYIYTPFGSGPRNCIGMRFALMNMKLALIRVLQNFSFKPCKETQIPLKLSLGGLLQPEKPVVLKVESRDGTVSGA
Sequence of CYP2D6 (P10635 whole entry): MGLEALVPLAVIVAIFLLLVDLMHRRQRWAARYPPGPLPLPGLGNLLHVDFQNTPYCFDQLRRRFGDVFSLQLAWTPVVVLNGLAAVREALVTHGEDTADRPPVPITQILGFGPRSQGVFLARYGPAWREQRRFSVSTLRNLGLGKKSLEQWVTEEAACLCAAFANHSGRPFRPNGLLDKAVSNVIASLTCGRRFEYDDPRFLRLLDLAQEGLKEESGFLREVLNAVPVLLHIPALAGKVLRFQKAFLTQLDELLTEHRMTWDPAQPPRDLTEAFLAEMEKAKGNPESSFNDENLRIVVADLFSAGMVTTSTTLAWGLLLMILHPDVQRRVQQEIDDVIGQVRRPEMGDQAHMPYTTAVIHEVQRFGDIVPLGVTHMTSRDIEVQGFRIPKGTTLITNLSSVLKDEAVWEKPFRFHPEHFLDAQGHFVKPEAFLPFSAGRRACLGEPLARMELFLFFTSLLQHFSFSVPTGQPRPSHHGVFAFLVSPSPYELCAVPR
Sequence of hERG (Q12809 whole entry): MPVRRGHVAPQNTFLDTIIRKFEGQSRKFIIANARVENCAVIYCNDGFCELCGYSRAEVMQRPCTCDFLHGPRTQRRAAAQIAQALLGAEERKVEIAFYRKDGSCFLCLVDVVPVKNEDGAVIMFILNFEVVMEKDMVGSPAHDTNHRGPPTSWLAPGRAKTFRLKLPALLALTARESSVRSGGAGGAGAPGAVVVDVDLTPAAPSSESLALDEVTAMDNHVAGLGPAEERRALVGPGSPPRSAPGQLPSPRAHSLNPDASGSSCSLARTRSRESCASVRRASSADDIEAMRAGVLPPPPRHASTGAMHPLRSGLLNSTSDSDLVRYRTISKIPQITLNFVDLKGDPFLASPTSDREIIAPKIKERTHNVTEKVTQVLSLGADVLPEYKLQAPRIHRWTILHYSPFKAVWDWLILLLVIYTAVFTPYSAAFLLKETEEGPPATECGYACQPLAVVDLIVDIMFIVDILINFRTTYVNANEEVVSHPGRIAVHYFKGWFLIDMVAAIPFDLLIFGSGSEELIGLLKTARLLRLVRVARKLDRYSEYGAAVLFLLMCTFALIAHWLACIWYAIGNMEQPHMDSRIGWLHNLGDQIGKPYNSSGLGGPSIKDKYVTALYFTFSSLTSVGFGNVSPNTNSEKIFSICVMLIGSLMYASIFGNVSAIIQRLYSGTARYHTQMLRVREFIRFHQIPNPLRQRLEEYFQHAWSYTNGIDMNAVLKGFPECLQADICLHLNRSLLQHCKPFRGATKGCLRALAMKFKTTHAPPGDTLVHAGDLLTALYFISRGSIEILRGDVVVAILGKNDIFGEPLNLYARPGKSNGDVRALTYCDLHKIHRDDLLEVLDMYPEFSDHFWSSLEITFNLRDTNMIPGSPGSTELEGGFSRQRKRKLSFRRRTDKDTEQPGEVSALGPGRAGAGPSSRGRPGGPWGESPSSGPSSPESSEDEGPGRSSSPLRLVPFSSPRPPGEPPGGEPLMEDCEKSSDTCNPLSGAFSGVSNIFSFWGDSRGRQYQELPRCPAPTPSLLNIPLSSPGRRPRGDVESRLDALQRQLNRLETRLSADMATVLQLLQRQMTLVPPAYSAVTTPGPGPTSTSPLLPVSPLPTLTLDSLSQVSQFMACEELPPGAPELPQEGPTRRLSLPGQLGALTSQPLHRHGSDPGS
Sequence of Nav1.5 (Q14524 whole entry): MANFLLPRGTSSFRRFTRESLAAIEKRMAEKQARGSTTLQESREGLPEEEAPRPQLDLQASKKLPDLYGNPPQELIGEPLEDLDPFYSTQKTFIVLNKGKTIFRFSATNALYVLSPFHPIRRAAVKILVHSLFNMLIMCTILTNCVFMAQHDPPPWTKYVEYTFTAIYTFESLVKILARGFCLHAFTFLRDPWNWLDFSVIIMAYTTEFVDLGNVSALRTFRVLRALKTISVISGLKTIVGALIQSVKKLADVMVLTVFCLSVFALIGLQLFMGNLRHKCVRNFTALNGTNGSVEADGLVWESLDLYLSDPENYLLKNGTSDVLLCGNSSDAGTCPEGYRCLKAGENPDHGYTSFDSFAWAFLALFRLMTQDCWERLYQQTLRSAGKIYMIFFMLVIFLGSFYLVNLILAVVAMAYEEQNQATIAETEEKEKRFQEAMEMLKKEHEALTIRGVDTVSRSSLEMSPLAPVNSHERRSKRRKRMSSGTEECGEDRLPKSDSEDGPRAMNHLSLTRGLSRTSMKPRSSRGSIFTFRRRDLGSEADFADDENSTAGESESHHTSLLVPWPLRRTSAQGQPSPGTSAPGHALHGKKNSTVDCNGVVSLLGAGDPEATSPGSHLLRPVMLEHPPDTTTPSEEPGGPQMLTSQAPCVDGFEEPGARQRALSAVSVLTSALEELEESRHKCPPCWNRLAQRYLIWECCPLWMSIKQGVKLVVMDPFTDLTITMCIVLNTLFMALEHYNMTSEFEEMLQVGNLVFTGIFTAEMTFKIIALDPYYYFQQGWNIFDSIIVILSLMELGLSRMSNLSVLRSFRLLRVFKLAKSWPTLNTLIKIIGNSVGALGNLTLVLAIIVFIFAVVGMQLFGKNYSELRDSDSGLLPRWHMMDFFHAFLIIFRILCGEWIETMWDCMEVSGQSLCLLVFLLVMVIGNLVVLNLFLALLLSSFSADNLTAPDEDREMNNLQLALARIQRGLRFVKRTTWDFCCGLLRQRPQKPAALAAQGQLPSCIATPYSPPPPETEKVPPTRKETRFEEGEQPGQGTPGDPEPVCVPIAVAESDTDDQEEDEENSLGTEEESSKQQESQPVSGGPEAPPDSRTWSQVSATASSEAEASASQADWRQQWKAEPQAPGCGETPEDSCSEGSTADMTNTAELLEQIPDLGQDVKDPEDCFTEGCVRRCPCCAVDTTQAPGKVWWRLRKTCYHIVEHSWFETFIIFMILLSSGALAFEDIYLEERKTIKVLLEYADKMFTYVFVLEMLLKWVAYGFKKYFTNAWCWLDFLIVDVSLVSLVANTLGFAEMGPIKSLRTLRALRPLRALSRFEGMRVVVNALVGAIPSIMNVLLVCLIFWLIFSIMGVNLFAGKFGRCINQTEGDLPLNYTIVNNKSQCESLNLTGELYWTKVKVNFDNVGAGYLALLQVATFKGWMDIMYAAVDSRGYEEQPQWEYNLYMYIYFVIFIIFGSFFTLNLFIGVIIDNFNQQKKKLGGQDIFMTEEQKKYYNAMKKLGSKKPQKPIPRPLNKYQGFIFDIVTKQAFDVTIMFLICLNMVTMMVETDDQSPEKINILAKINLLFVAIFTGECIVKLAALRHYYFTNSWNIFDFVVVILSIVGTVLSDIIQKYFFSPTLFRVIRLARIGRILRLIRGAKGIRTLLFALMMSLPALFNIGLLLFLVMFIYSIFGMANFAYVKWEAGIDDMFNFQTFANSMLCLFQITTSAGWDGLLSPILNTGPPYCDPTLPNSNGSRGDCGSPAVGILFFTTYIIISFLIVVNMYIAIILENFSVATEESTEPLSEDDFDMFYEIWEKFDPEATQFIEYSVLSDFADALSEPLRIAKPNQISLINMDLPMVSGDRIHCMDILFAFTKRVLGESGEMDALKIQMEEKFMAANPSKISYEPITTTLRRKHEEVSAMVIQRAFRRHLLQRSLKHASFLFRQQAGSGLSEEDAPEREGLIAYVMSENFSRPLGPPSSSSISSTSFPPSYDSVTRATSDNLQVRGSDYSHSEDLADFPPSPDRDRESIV
Sequence of human PDE9A (O76083 whole entry): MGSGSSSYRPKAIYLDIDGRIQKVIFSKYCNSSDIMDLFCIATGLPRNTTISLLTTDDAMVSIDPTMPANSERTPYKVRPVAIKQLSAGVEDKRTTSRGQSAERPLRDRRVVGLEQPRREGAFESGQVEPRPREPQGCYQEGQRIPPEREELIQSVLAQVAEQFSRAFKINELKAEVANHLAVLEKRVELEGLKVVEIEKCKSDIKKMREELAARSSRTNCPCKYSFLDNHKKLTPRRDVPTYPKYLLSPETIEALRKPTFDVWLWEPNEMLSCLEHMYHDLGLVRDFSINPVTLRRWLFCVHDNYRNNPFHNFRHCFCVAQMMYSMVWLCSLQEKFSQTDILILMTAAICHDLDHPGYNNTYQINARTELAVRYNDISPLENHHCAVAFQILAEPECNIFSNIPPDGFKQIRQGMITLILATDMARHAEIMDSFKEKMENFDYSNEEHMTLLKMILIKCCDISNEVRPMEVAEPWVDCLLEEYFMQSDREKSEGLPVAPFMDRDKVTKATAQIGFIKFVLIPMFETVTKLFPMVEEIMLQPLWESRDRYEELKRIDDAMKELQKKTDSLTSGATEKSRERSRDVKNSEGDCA

As for `CCCC1CNCc2c1[nH]c(=O)c(C#N)c2N1CCC2(CC1)CC2.Cl` (single isomer, unassigned; ent-4) [Compound 30, ent-4-(6-Azaspiro[2.5]octan-6-yl)-2-oxo-8-propyl-1,2,5,6,7,8-hexahydro-1,6-naphthyridine-3-carbonitrile Hydrochloride], the “inhibition of CYP3A4” value against CYP3A4 is “No inhibition”. On human PDE9A, the “BEI binding efficiency index −log (IC50)/MW × 1000” value was 23.9. In addition, the “inhibition of cardiac ion channel hERG” value against hERG is listed as “clean profile”. Besides, the “PDE3B selectivity factor (PDE#-IC50/PDE9A-IC50)” value in the data set with PDE3B is on record as above 650x. In addition, in the data set with CYP3A4 mRNA, the “concentrations at which CYP3A4 mRNA was induced” value is “above 9.2 μM”. Moreover, in the data set “Pharmacokinetics in dogs”, the clearance (commonly the rate of elimination divided by the concentration) was 15 mL/min/kg. Also, at CYP2C8, the “inhibition of CYP2C8” value is “No inhibition”. Besides, the “inhibition of CYP2D6” value at CYP2D6 was “No inhibition”. Besides, at Nav1.5, the “inhibition of cardiac ion channel Nav1.5” value is recorded as “clean profile”. Besides, in data set [1], the “reactive metabolites after incubation with rat hepatocytes” value was “no reactive metabolites were formed”. Further, in the data set with PDE10A, the “PDE10A selectivity factor (PDE#-IC50/PDE9A-IC50)” value is listed as above 650x. Also, in data set [2] (once daily oral 5 or 40 mg/kg), the “effects on blood pressure” value is reported as “no significant effects” and the “effects on heart rate” value is “no significant effects”. Moreover, it took 42 nM to reach half-maximal inhibition against rat PDE9A (IC50). In addition, the CYP1A2 induction result in the data set with CYP1A2 [3] is “no induction”. Besides, the “PDE2A selectivity factor (PDE#-IC50/PDE9A-IC50)” value in the data set with PDE2A was above 650x. For the same compound, 34 nM corresponded to half-maximal inhibition against mouse PDE9A (IC50). For the same compound, the “inhibition of 75 off-targets (Panlabs)” value in the data set on 75 off-targets (Panlabs) is on record as “clean profile”. The “genotoxicity in Ames test” value in “Ames test” is “No genotoxicity”. Also, the “urinary cGMP versus vehicle” value in the data set with urinary cGMP is listed as “nonsignificant trend toward higher cGMP levels”. Moreover, the “reactive metabolites after incubation with human hepatocytes” value in [4] is listed as “no reactive metabolites were formed”. Moreover, in [4] (after 4 h of incubation), the “degradation in the presence of human hepatocytes” value is on record as “almost no degradation”. Moreover, the “PDE7B selectivity factor (PDE#-IC50/PDE9A-IC50)” value with PDE7B is above 650x. In addition, on CYP1A2 [5], the “inhibition of CYP1A2” value is given as “No inhibition”.
On to `C[C@@H]1CN(Cc2ncccn2)C[C@H]1c1nc2c(cnn2C2CCOCC2)c(=O)[nH]1` [PF-04447943, 6-[(3S,4S)-4-Methyl-1-(pyrimidin-2-ylmethyl)pyrrolidin-3-yl]-1-(tetrahydro-2H-pyran-4-yl)-1,5-dihydro-4H-pyrazolo[3,4-d]pyrimidin-4-one, reference compound], for which the clearance in the data set “Pharmacokinetics in dogs” was 8.33 mL/min/kg. Besides, in data set [2] (setting [7]), the “effects on blood pressure” value is given as “no significant effects” and the “effects on heart rate” value is on record as “no significant effects”. In data set [6] (10 mg/kg bid for five weeks, 10 mg/kg), the “minimal diastolic left ventricular pressure (LVPmin)” value is recorded as “reduction”. In data set [6] (setting [8]), the “heart function (LVEDP, Tau)” value is “trend for improvement” and the “hypertrophy of the left atrium” value was “statistically significant reduction”.

Values taken from publication PMC9791655 (Journal of Medicinal Chemistry, 2022).
